Our source for the Activity, EC50 and Emax values is ChEMBL document CHEMBL4251720, “Estrogen Receptor (ER) Subtype Selectivity Identifies 8-Prenylapigenin as an ERβ Agonist from Glycyrrhiza inflata and Highlights the Importance of Chemical and Biological Authentication” (J Nat Prod, 2018).

Usually EC50 stands for the concentration at which the effect is half-maximal. Low readings indicate an effect from little substance, high ones a need for much substance. One may read the Emax as the maximal effect, on the per cent scale that the assay sets.

Data set [1] concerns the target T1, Estrogen receptor (Homo sapiens, UniProt P03372).
T1 sequence (P03372 whole entry): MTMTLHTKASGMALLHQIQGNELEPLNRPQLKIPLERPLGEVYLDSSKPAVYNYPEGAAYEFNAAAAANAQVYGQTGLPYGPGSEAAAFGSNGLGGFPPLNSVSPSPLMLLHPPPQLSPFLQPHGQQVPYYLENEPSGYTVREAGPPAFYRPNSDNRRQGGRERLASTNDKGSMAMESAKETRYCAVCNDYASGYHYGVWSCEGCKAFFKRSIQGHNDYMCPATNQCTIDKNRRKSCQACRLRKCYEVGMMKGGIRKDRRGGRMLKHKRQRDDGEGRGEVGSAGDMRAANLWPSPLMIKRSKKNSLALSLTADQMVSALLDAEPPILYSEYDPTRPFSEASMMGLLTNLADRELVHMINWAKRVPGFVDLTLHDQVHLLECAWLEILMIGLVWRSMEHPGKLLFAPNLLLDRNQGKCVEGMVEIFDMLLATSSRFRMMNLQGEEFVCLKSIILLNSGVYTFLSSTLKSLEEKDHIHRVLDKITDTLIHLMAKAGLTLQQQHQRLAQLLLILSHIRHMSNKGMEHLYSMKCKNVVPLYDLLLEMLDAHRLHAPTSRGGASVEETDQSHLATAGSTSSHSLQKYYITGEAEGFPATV
The data set is described as follows: Estrogenic activity at ERalpha in human Ishikawa cells assessed as induction of alkaline phosphatase activity at 0.01 to 1 uM using […] as substrate treated for 96 hrs followed by substrate addition by spectrophotometric method. The format is cell-based.

Data set [2] addresses T2, Estrogen receptor beta (Homo sapiens, UniProt Q92731).
Description: (§1) Estrogenic activity at ERbeta (unknown origin) expressed in human MDA-MB-231/beta41 cells after 18 hrs by renilla luciferase reporter gene assay
Data set [3] addresses T3, Estrogen receptor alpha (ERalpha) (Homo sapiens, UniProt P03372).
T3 sequence (P03372 whole entry): T1 sequence (P03372 whole entry)
The data set is described as follows: in vitro. The following applies: Ishikawa cells, probe p-nitrophenol (so in the source) as alkaline phosphatase substrate.
Description: Estrogenic activity at ERalpha in human Ishikawa cells assessed as induction of alkaline phosphatase activity using p-nitrophenol as substrate treated for 96 hrs followed by substrate addition by spectrophotometric method relative to estradiol

For data set [4], the target named is T1, Estrogen receptor.
Description: Estrogenic activity at ERalpha in human Ishikawa cells assessed as induction of alkaline phosphatase activity using p-nitrophenol as substrate treated for 96 hrs followed by substrate addition by spectrophotometric method
In data set [5] the target is T2, Estrogen receptor beta. The source holds these as a separate data set.
Description: as §1

T2 sequence (Q92731 whole entry): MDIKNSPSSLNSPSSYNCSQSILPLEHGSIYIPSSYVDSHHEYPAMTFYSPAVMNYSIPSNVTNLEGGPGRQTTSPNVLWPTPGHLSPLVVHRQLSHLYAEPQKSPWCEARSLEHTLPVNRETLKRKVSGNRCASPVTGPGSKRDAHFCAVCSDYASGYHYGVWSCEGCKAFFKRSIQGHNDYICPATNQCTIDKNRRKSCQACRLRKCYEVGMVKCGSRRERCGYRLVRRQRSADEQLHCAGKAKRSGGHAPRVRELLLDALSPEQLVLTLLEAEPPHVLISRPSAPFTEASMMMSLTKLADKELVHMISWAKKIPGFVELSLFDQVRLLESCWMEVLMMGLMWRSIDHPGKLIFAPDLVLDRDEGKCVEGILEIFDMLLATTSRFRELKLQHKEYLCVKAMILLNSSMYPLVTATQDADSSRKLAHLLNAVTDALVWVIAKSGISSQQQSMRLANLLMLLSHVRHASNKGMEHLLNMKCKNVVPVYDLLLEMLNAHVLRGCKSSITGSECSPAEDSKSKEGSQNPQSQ

`COc1cc(O)c(C(=O)/C=C/c2ccc(O)cc2)cc1CC=C(C)C`: in data set [1], the Activity result is given as “Not Active”.

In turn, `CC(C)=CCc1c(O)cc(O)c2c1O[C@H](c1ccc(O)cc1)CC2=O` showed an EC50 in data set [2] of 5 nM.

In data set [3], `CCCc1c(-c2ccc(O)cc2)nn(-c2ccc(O)cc2)c1-c1ccc(O)cc1` [PROPYLPYRAZOLETRIOL] gave an Emax at 96 h of 119%. Also, the EC50 in data set [4] is 1 nM; in data set [5] it was “Not Active”.
